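Five compound concentrations were applied to cells in 96-well plates for 48 hours; endpoints were derived by simple linear interpolation of the resulting dose-response curve. GI50 is the concentration that inhibits growth by half. Definition used: TGI = concentration required for complete inhibition of growth.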
Experiments:
Assay in all cases: inhibition of tumour cell growth, NCI panel, 48 h
SR leukemia = system: SR leukemia
HL-60(TB) leukemia = system: HL-60(TB) leukemia
OVCAR-4 ovarian = system: OVCAR-4 ovarian
A498 renal = system: A498 renal
SF-268 CNS = system: SF-268 CNS
SF-295 CNS = system: SF-295 CNS
UACC-62 melanoma = system: UACC-62 melanoma
MDA-MB-231 breast = system: MDA-MB-231 breast
HOP-62 NSCLC = system: HOP-62 NSCLC
OVCAR-5 ovarian = system: OVCAR-5 ovarian

SMILES	TGI (SR leukemia) [µM]	TGI (HL-60(TB) leukemia) [µM]	TGI (OVCAR-4 ovarian) [µM]	TGI (A498 renal) [µM]	TGI (SF-268 CNS) [µM]	TGI (SF-295 CNS) [µM]	TGI (UACC-62 melanoma) [µM]	TGI (MDA-MB-231 breast) [µM]	TGI (HOP-62 NSCLC) [µM]	TGI (OVCAR-5 ovarian) [µM]	GI50 (SR leukemia) [µM]	GI50 (HL-60(TB) leukemia) [µM]	GI50 (UACC-62 melanoma) [µM]	GI50 (OVCAR-4 ovarian) [µM]	GI50 (SF-268 CNS) [µM]	GI50 (MDA-MB-231 breast) [µM]	GI50 (HOP-62 NSCLC) [µM]
O=C(/C=C/c1cccc(Br)c1)c1cccs1	> 100	17.7	31.8	33.2	42.1	30.2	32.7	38.8	73.8	–	–	–	–	–	–	–	–
COc1ccc2[nH]c(Cl)c(/C=C3/C(=O)Nc4cc(C)c(OC)cc43)c2c1	> 100	6.08	–	19.2	19.3	6	15.2	20.6	18.5	27.2	–	–	–	–	–	–	–
COC(=O)C(C)(N=Cc1ccccc1)c1ccccc1 (stereo unspecified)	> 100	> 100	> 100	> 100	> 100	> 100	> 100	> 100	> 100	> 100	–	–	–	–	–	–	–
ClC(Cl)(Cl)C1=N[C@H]2[C@H](Br)[C@@H]3O[C@@H](c4ccccc4)[C@H](c4ccccc4)O[C@@H]3[C@H]2O1	52.2	–	43.8	31.3	37.2	34.3	31.5	50.1	41.3	37.5	–	–	–	–	–	–	–
CCOC(=O)N1CCN(c2ccc3c(C)cc(C)nc3n2)CC1	> 100	> 100	> 100	> 100	> 100	> 100	> 100	> 100	> 100	> 100	–	–	–	–	–	–	–
COC(=O)c1cc(NC(=O)c2cc(NC(=O)c3cc([N+](=O)[O-])cn3C)cn2C)cn1C	–	> 100	> 100	> 100	> 100	> 100	> 100	> 100	> 100	> 100	–	–	–	–	–	–	–
CN(C(=O)Cc1ccc(Cl)c(Cl)c1)[C@H]1CCCC[C@@H]1[N+]1(C)CCCC1	> 100	–	> 100	> 100	> 100	> 100	> 100	> 100	> 100	> 100	–	–	–	–	–	–	–
O=C1Sc2ccc(Br)cc2C(=O)Sc2ccccc21	4.13	9.71	29.8	43.6	22.3	57.5	31.8	31.7	28.4	36.8	–	–	–	–	–	–	–
COc1ccccc1C1SCC(=O)N1c1ccc(-c2ccc(-n3c(-c4ccccc4)nc4ccccc4c3=O)cc2)cc1 (stereo unspecified)	–	> 100	–	> 100	> 100	> 100	> 100	> 100	> 100	> 100	–	–	–	–	–	–	–
Cc1ccc(OCC2OC(n3cnc4c(N(C)C)nc(Br)nc43)CC2Oc2ccc(C)cc2)cc1 (stereo unspecified)	–	> 100	> 100	> 100	> 100	> 100	> 100	> 100	–	> 100	–	–	–	–	–	–	–
COC(=O)/C=C(\C)C(=O)N(C)c1ccccc1I	> 100	–	> 100	> 100	> 100	> 100	> 100	> 100	> 100	> 100	–	–	–	–	–	–	–
CC(C)[C@@H]1CC[C@@H](C)C[C@H]1OC(=O)/C=C1/C2C=CC(O2)C1C(=O)O[C@@H]1C[C@H](C)CC[C@H]1C(C)C (stereo partly specified)	> 100	> 100	> 100	> 100	> 100	> 100	> 100	> 100	> 100	> 100	–	–	–	–	–	–	–
CC(C)C(C/C=C1\CC(CO)(COC(=O)c2ccccc2)OC1=O)C(C)C (stereo unspecified)	> 100	–	35.6	50.7	35.5	28.7	> 100	44.2	28.7	28	–	–	–	–	–	–	–
FC(F)(F)c1ccccc1N1CCN(c2nc(-c3cccs3)nc3ccc(Br)cc23)CC1	> 100	> 100	> 100	> 100	> 100	> 100	46.3	74	> 100	> 100	–	–	–	–	–	–	–
O=C1C(NCCc2ccc(O)c(O)c2)=CC(=O)c2ncccc21	> 100	60.3	50.9	46.7	66.5	28.5	22.5	16.1	49.9	40.2	–	–	–	–	–	–	–
CN(C)c1nc(NC23CC4CC(CC(C4)C2)C3)nc(N(C)C)n1	53.9	13.5	> 100	> 100	> 100	> 33.3	> 76.1	> 57	> 90.4	> 100	–	–	–	–	–	–	–
Cc1ccc(S(=O)(=O)/N=C(\NN)Nc2ccc(Cl)cc2)cc1	> 100	> 100	> 100	> 100	–	> 100	> 100	> 100	> 100	> 100	–	–	–	–	–	–	–
COC(=O)c1ccccc1C#CC#Cc1ccccc1C(=O)OC	> 10	8.25	> 10	> 10	> 10	> 10	> 10	> 10	> 10	> 10	–	–	–	–	–	–	–
[Se]=P(c1ccccc1)(c1ccccc1)c1ccc(C(c2ccccc2)=P(c2ccccc2)(c2ccccc2)c2ccccc2)cc1	> 33.3	1.06	> 33.1	9.4	9.26	10.2	3.85	7.33	4.33	18.7	–	–	–	–	–	–	–
O=C(CN1CCN(Cc2ccccc2)CC1)N1CCCn2c1nc1ccccc1c2=O	> 100	> 100	> 100	> 100	> 100	> 100	> 100	> 100	> 100	> 100	–	–	–	–	–	–	–
COc1ccc(S(=O)(=O)O)cc1-n1nc(C(=O)Nc2ccccc2)n[n+]1-c1cc(S(=O)(=O)[O-])ccc1OC	> 100	> 100	> 100	> 100	> 100	> 100	> 100	> 100	> 100	> 100	–	–	–	–	–	–	–

SMILES	TGI (SR leukemia) [µM]	TGI (HL-60(TB) leukemia) [µM]	TGI (OVCAR-4 ovarian) [µM]	TGI (A498 renal) [µM]	TGI (SF-268 CNS) [µM]	TGI (SF-295 CNS) [µM]	TGI (UACC-62 melanoma) [µM]	TGI (MDA-MB-231 breast) [µM]	TGI (HOP-62 NSCLC) [µM]	TGI (OVCAR-5 ovarian) [µM]	GI50 (SR leukemia) [µM]	GI50 (HL-60(TB) leukemia) [µM]	GI50 (UACC-62 melanoma) [µM]	GI50 (OVCAR-4 ovarian) [µM]	GI50 (SF-268 CNS) [µM]	GI50 (MDA-MB-231 breast) [µM]	GI50 (HOP-62 NSCLC) [µM]
COC(=O)C(CCc1ccccc1I)C1=CCC2(CC1)OCCO2 (stereo unspecified)	> 100	17.4	> 100	> 100	> 100	> 100	> 100	> 100	> 100	95.8	–	–	–	–	–	–	–
O=C1CSC(/C(=C\c2ccc(Cl)cc2)c2nc3ccccc3[nH]2)=N1	94.4	> 68.8	31.8	16	23	22.8	33.5	28.3	5.82	33.5	–	–	–	–	–	–	–
O=c1[nH]nc(-c2ccccc2)n1/N=C/c1c[nH]c2ccccc12	–	> 100	> 100	> 100	> 100	> 100	> 100	> 100	> 100	> 100	–	–	–	–	–	–	–
O=C(NCCC(F)(F)C(F)(F)C(F)(F)C(F)(F)F)NC1OC(CO)C(O)C(O)C1O (stereo unspecified)	> 100	> 100	> 100	–	> 100	> 100	> 100	> 100	> 100	> 100	–	–	–	–	–	–	–
COC(=O)C1=C(C)NC2(O)C=CC(=O)C3C(=O)N(c4ccccc4)C(=O)C132 (stereo unspecified)	> 100	> 100	> 100	> 100	> 100	> 100	> 100	> 100	> 100	> 100	–	–	–	–	–	–	–
CCOC(=O)c1c(Br)c(-c2ccc(Br)cc2)c(Br)n1C	26.1	16.6	> 100	44.2	75.9	45.6	> 100	50.1	53.1	59.7	10	5.24	23.6	–	–	–	–
CCOC(=O)c1cc(C(=O)c2ccccc2)n2nc(-c3ccc(Cl)cc3)ccc12	> 100	> 100	37.2	49	27.6	54.2	39.3	> 100	34.8	58	–	–	–	–	–	–	–
CC(C)=CC(=O)O[C@H]1C(=O)O[C@@H]2C[C@H]3[C@H](C)C(=O)C(O[C@@H]4O[C@H](CO)[C@@H](O)[C@H](O)[C@H]4O)=C[C@]3(C)[C@H]3[C@@H](O)[C@H](O)[C@]4(C(=O)O)OC[C@]32[C@@H]14	> 100	> 100	> 100	> 100	> 100	–	> 100	> 100	> 100	> 100	31.2	35.8	–	25.2	> 100	> 100	33.2
CC(C)SC(C)(NC(=O)C1C(C)(C)CCC1(C)C)C(=O)O (stereo unspecified)	> 100	> 100	–	> 100	> 100	–	–	> 100	> 100	> 100	–	–	–	–	–	–	–
COc1cc2c(c(OC)c1OC)-c1ccc(SC)c(=O)cc1[C@@H](OC(C)=O)CC2	> 100	0.0242	> 100	–	25.1	–	> 100	> 100	> 100	–	–	–	–	–	–	–	–
CNc1ccc(-c2nc3cc(C)ccc3o2)cc1	–	> 100	> 100	77.8	> 100	> 100	> 100	> 100	> 100	> 100	–	–	–	–	–	–	–
CN1C(=S)C(c2ccccc2)Sc2ccccc21 (stereo unspecified)	> 100	> 100	> 100	–	> 100	89.4	> 100	> 100	> 100	> 100	–	–	–	–	–	–	–
O=C(Nc1cccc(C(F)(F)F)c1)O/N=C(/Cl)CCl	62.8	38.7	> 100	> 100	> 100	> 100	–	39	> 100	45.3	–	–	–	–	–	–	–
CCOC(=O)Nc1c(C#N)[n+]([O-])c2cc(Cl)c(Cl)cc2[n+]1[O-]	24.3	–	29.4	25	34.3	34	31.1	35.8	> 100	–	–	–	–	–	–	–	–
COc1cccc(-c2ccc3c4c2O[C@H]2c5[nH]c6ccccc6c5C[C@@]5(O)[C@@H](C3)N(CC3CC3)CC[C@]425)c1	5.51	–	3.27	6.83	3.37	3.08	3.05	3.44	3.12	20.8	–	–	–	–	–	–	–
COc1ccc(O[C@H](COCc2ccccc2)C[C@@H]2COC(C)(C)O2)cc1	> 100	–	> 100	> 100	> 100	> 100	> 100	> 100	> 100	> 100	–	–	–	–	–	–	–
O=C1NC(N/N=C\C(O)C(O)C(O)CO)=N/C1=C/c1ccc(Cl)cc1 (stereo unspecified)	–	> 100	57	> 100	> 100	> 100	–	> 100	> 100	> 100	–	–	–	–	–	–	–
O=C(N=C1SCCN1C(=O)C(C(F)(F)F)C(F)(F)F)C(C(F)(F)F)C(F)(F)F	> 100	> 100	> 100	> 100	–	> 100	–	> 100	> 100	> 100	–	–	–	–	–	–	–
COc1ccc(N2C(=Nc3ccccc3)SC(=N/S(=O)(=O)c3ccccc3)/C2=N\S(=O)(=O)c2ccccc2)cc1	40.4	33.4	–	52.4	–	–	19.8	43.5	98.5	50.7	–	–	–	–	–	–	–
O=c1c(SSc2coc3cc(F)ccc3c2=O)coc2cc(F)ccc12	> 100	54.7	–	–	> 100	> 100	36.1	37.1	> 100	> 100	–	–	–	–	–	–	–
O=C1/C(=C\c2cccc(Oc3ccccc3)c2)S(=O)(=O)C(c2ccccc2)N1c1ccccc1Cl (stereo unspecified)	62.4	33.6	98.1	> 100	–	> 100	94.8	> 100	> 100	> 100	–	–	–	–	–	–	–
